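Assay format: 96-well plates, 48-hour exposure. TGI denotes the concentration required for complete inhibition of growth.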
Assays:
Test in all cases: inhibition of tumour cell growth, NCI panel, 48 h
SF-268 CNS = system: SF-268 CNS
U251 CNS = system: U251 CNS
MCF7 breast = system: MCF7 breast
K-562 leukemia = system: K-562 leukemia
SK-MEL-28 melanoma = system: SK-MEL-28 melanoma
A549 NSCLC = system: A549 NSCLC
HCT-116 colon = system: HCT-116 colon
SF-539 CNS = system: SF-539 CNS
NCI/ADR-RES ovarian = system: NCI/ADR-RES ovarian
COLO 205 colon = system: COLO 205 colon
HL-60(TB) leukemia = system: HL-60(TB) leukemia

| SMILES | TGI (SF-268 CNS) | TGI (U251 CNS) | TGI (MCF7 breast) | TGI (K-562 leukemia) | TGI (SK-MEL-28 melanoma) | TGI (A549 NSCLC) | TGI (HCT-116 colon) | TGI (SF-539 CNS) | TGI (NCI/ADR-RES ovarian) | TGI (COLO 205 colon) | TGI (HL-60(TB) leukemia) |
| --- | --- | --- | --- | --- | --- | --- | --- | --- | --- | --- | --- |
| CCC(c1ccc(OC)cc1)C1NC(=S)NC1=O (configuration not stated) | > 50 µM | > 50 µM | > 50 µM | > 50 µM | > 50 µM | > 50 µM | > 50 µM | > 50 µM | > 50 µM | > 50 µM | 47.3 µM |
| NC(Cc1ccccc1)c1nn[nH]n1 (configuration not stated) | > 100 µM | > 100 µM | > 100 µM | > 100 µM | > 100 µM | > 100 µM | > 100 µM | > 100 µM | > 100 µM | > 100 µM | > 100 µM |
| COC(=O)c1ccc(C)cc1C1CN=NC12Cc1cc(C)ccc1C2=O (configuration not stated) | > 100 µM | > 70.6 µM | 24 µM | > 68.1 µM | > 100 µM | > 100 µM | 28.6 µM | 36.2 µM | 47.5 µM | 19.1 µM | 16.3 µM |
| OCC1OC(n2cnc3c(SCc4ccccc4)ncnc32)C(O)C1O (configuration not stated) | > 100 µM | > 100 µM | > 100 µM | > 100 µM | > 100 µM | > 100 µM | > 100 µM | > 100 µM | > 100 µM | > 94.9 µM | 8.52 µM |
| COc1ccc(NS(=O)c2c(C)cc(C)cc2C)cc1 (configuration not stated) | > 100 µM | > 100 µM | > 100 µM | > 100 µM | > 100 µM | > 100 µM | > 100 µM | 53.3 µM | > 100 µM | > 100 µM | > 100 µM |
| Nc1nc(Br)nc2ncn(C3CC(O)C(CO)O3)c12 (configuration not stated) | > 100 µM | > 100 µM | > 100 µM | > 100 µM | > 100 µM | > 100 µM | > 100 µM | > 100 µM | > 63.1 µM | > 100 µM | 9.35 µM |
| CC(=O)N=c1ccc2nc(N)nn(O)c-2c1 | > 100 µM | > 100 µM | > 100 µM | > 100 µM | > 100 µM | > 100 µM | > 100 µM | > 100 µM | > 100 µM | > 100 µM | > 100 µM |
| COC(=O)CC(CNC(=O)OCc1ccccc1)OCc1ccc(OC)cc1 (configuration not stated) |  | > 100 µM | > 100 µM | > 100 µM | > 100 µM | > 100 µM | > 100 µM | > 100 µM | > 100 µM | > 100 µM | > 100 µM |
| COc1ccc(-n2c(Cn3nnc(-c4cccnc4)n3)nn(C3OC(COC(=O)c4ccccc4)C(OC(=O)c4ccccc4)C3OC(=O)c3ccccc3)c2=S)cc1 (configuration not stated) | > 100 µM | > 100 µM | > 100 µM | > 100 µM | > 100 µM | > 100 µM | > 100 µM | > 100 µM | > 100 µM | > 100 µM | > 100 µM |
| CN1c2ccccc2C(=O)NC12CCNCC2 | > 100 µM | > 100 µM | > 100 µM | > 100 µM | > 100 µM | > 100 µM | > 100 µM | > 100 µM | > 100 µM | > 100 µM | > 100 µM |
| O=C(c1ccccc1)C(Nc1ccc2ccccc2c1)c1ccccc1 (configuration not stated) | > 100 µM | > 100 µM | > 100 µM | > 87.6 µM | > 100 µM | > 100 µM | > 100 µM | > 100 µM | > 100 µM | 33.7 µM | 36.4 µM |
| Cc1[nH]c2nc3c(ncn3COCCO)c(=O)n2c1C(c1ccccc1)(c1ccccc1)c1ccccc1 | 33.1 µM | 28 µM | 23.1 µM | 27.3 µM | 43.5 µM | 40.5 µM | 29.3 µM | 19.2 µM | > 100 µM | 31 µM | 44.4 µM |
| CCCCCCCCCCCCCCCC(=O)Nc1ccn(C2CCC(COP(=O)(O)OCC3OC(n4cc(F)c(=O)[nH]c4=O)CC3OC(C)=O)O2)c(=O)n1 (configuration not stated) | > 82.8 µM | 36.3 µM | 44.1 µM | > 38.2 µM | 43.8 µM | > 54.2 µM | 34.1 µM | > 23.3 µM | > 100 µM | 28.5 µM | 27.9 µM |
| CC(C)CC(NC=O)C(=O)NC(Cc1ccccc1)NC(=O)CNC(=O)C(C)NC(=O)C(N)Cc1ccc(O)cc1 (configuration not stated) | > 100 µM | > 100 µM | > 100 µM | > 100 µM | > 100 µM | > 100 µM | > 100 µM | > 100 µM | > 100 µM | > 100 µM | > 100 µM |
| O=C1Nc2ccccc2/C1=C\c1c(-c2ccccc2)nc2n1CCS2 | 86.9 µM | 45.3 µM | 39.3 µM | > 100 µM | > 100 µM | > 100 µM | 49.2 µM | 39.1 µM | 68.1 µM | 81.3 µM | 42.3 µM |
| O=C(O)C1=CN(c2ccncc2)C(c2ccco2)=CC1c1ccccc1[N+](=O)[O-] (configuration not stated) | 25.9 µM | 24.2 µM | 10.7 µM | > 100 µM | 40.9 µM | 34.2 µM | 3.66 µM | 10.3 µM | > 69.8 µM | 32.9 µM | > 100 µM |
| CCCNCC(O)CNc1ccc(NCC(O)CNCCC)c2c1C(=O)c1ccccc1C2=O (configuration not stated) | 5.66 µM | 9.02 µM | 7.5 µM | 8.21 µM | 9.69 µM | 4.64 µM | 8.31 µM | 5.11 µM | > 75 µM | 7.97 µM | 18.9 µM |
| O=C1CCN2C(=N1)Sc1ccccc12 | > 100 µM | > 100 µM | > 100 µM | > 100 µM | > 100 µM | > 100 µM | > 100 µM | > 100 µM | > 100 µM | > 100 µM | > 100 µM |
